Test results as given in the kinase profiling compilation of Christmann-Franck et al. (2016).

Assays:
Assay in all cases: KINOMEscan competition binding
[1] = molecular target: PHKG1 (human) (UniProt Q16816); conditions: compound 10.0 µM
[2] = molecular target: NUAK1 (human) (UniProt O60285); conditions: compound 10.0 µM
[3] = molecular target: RPS6KA4 KD1 (human) (UniProt O75676); conditions: compound 10.0 µM
[4] = molecular target: MAPK12 (human) (UniProt P53778); conditions: compound 10.0 µM
[5] = tested on: EGFR (human), P00533 [L858R]; conditions: compound 10.0 µM
[6] = molecular target: NEK5 (human) (UniProt Q6P3R8); conditions: compound 10.0 µM
[7] = molecular target: PIK3CD (human) (UniProt O00329); conditions: compound 10.0 µM
[8] = molecular target: MAP3K9 (human) (UniProt P80192); conditions: compound 10.0 µM
[9] = molecular target: ERN1 (human) (UniProt O75460); conditions: compound 10.0 µM
[10] = molecular target: VRK2 (human) (UniProt Q86Y07); conditions: compound 10.0 µM
[11] = molecular target: FGR (human) (UniProt P09769); conditions: compound 10.0 µM
[12] = molecular target: EGFR (human) (UniProt P00533); conditions: compound 10.0 µM
[13] = molecular target: CAMKK2 (human) (UniProt Q96RR4); conditions: compound 10.0 µM
[14] = molecular target: BMPR2 (human) (UniProt Q13873); conditions: compound 10.0 µM
[15] = molecular target: MINK1 (human) (UniProt Q8N4C8); conditions: compound 10.0 µM
[16] = molecular target: MYO3B (human) (UniProt Q8WXR4); conditions: compound 10.0 µM
[17] = molecular target: MAPK8 (human) (UniProt P45983)
[18] = molecular target: CSF1R (human) (UniProt P07333); conditions: compound 10.0 µM
[19] = molecular target: BMPR1A (human) (UniProt P36894); conditions: compound 10.0 µM
[20] = molecular target: MAPK6 (human) (UniProt Q16659); conditions: compound 10.0 µM
[21] = molecular target: CDC42BPG (human) (UniProt Q6DT37); conditions: compound 10.0 µM
[22] = molecular target: TEC (human) (UniProt P42680); conditions: compound 10.0 µM
[23] = molecular target: SBK1 (human) (UniProt Q52WX2); conditions: compound 10.0 µM
[24] = molecular target: RIOK3 (human) (UniProt O14730); conditions: compound 10.0 µM
[25] = molecular target: CRK2 (P.falciparum) (UniProt P61075); conditions: compound 10.0 µM
[26] = molecular target: MELK (human) (UniProt Q14680); conditions: compound 10.0 µM
[27] = molecular target: ROCK1 (human) (UniProt Q13464); conditions: compound 10.0 µM
[28] = molecular target: MARK1 (human) (UniProt Q9P0L2); conditions: compound 10.0 µM
[29] = molecular target: HUNK (human) (UniProt P57058); conditions: compound 10.0 µM
[30] = molecular target: MLTK (human) (UniProt Q9NYL2); conditions: compound 10.0 µM
[31] = molecular target: CDKL3 (human) (UniProt Q8IVW4); conditions: compound 10.0 µM
[32] = molecular target: MAP2K1 (human) (UniProt Q02750); conditions: compound 10.0 µM
[33] = molecular target: DCLK1 (human) (UniProt O15075); conditions: compound 10.0 µM
[34] = molecular target: MYO3A (human) (UniProt Q8NEV4); conditions: compound 10.0 µM
[35] = molecular target: MAPK13 (human) (UniProt O15264); conditions: compound 10.0 µM
[36] = molecular target: INSR (human) (UniProt P06213); conditions: compound 10.0 µM
[37] = molecular target: STK25 (human) (UniProt O00506); conditions: compound 10.0 µM
[38] = molecular target: MAPK1 (human) (UniProt P28482); conditions: compound 10.0 µM
[39] = molecular target: NLK (human) (UniProt Q9UBE8); conditions: compound 10.0 µM
[40] = molecular target: MAPKAPK5 (human) (UniProt Q8IW41); conditions: compound 10.0 µM
[41] = molecular target: RIOK1 (human) (UniProt Q9BRS2); conditions: compound 10.0 µM
[42] = molecular target: FYN (human) (UniProt P06241); conditions: compound 10.0 µM
[43] = tested on: FLT3 (human), P36888 [N841I]; conditions: compound 10.0 µM

MAPK8 (human), sequence (P45983 whole entry, looked up): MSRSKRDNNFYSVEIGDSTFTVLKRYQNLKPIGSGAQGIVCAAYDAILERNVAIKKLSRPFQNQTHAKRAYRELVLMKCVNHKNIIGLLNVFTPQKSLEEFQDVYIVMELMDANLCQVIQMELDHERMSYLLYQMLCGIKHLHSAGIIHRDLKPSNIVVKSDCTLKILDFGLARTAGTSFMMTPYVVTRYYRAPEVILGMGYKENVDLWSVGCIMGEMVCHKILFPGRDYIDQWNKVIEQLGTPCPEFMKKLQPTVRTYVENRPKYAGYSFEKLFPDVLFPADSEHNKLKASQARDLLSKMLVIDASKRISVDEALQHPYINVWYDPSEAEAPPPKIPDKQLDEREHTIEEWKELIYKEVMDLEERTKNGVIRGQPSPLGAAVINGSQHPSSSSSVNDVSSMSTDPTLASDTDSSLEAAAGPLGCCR
HUNK (human), sequence (P57058 whole entry, looked up): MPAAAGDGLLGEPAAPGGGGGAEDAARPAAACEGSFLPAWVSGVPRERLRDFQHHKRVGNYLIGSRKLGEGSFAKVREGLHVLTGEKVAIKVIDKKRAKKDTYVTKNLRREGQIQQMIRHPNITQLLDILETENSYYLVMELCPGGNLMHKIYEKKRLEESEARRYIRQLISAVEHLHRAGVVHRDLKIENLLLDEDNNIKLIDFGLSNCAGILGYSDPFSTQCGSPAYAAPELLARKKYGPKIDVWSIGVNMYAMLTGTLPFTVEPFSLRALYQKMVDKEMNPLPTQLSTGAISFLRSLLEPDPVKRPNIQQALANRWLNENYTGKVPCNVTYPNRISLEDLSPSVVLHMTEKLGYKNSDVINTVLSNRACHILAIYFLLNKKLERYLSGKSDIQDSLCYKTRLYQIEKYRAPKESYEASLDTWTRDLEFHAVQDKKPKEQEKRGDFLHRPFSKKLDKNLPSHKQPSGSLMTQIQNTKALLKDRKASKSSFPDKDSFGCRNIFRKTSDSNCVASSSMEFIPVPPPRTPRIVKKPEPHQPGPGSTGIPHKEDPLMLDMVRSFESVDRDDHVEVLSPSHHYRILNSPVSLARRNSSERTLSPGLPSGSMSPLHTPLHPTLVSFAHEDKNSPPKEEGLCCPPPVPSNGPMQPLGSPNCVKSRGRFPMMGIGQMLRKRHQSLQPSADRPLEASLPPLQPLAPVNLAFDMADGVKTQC
NLK (human), sequence (Q9UBE8 whole entry, looked up): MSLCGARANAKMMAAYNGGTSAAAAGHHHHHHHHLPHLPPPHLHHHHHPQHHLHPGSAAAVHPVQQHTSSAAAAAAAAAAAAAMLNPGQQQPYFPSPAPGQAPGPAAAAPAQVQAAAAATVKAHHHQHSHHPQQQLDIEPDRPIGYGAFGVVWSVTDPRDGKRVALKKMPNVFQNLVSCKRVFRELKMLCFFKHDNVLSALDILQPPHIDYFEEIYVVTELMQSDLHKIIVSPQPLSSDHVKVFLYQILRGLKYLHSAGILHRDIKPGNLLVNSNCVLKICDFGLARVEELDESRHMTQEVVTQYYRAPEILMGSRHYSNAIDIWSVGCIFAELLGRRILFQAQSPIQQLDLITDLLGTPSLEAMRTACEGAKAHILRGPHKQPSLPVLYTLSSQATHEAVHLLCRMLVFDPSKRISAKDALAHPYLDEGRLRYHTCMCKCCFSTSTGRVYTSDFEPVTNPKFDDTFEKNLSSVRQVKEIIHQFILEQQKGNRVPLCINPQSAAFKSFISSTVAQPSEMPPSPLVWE
BMPR1A (human), sequence (P36894 whole entry, looked up): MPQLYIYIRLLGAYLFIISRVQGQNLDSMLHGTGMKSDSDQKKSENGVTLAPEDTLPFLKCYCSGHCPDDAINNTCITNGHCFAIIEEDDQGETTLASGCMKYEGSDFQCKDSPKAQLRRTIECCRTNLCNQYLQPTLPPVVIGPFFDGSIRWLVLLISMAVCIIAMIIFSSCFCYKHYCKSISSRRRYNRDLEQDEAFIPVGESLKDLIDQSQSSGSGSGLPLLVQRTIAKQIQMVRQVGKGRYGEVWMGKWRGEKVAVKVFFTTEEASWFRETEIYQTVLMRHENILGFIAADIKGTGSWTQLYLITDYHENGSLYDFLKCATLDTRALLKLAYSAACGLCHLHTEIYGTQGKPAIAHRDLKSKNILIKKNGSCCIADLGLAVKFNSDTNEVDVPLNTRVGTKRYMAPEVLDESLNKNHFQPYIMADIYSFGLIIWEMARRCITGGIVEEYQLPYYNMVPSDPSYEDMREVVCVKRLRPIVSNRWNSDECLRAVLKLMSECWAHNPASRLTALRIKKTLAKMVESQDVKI
TEC (human), sequence (P42680 whole entry, looked up): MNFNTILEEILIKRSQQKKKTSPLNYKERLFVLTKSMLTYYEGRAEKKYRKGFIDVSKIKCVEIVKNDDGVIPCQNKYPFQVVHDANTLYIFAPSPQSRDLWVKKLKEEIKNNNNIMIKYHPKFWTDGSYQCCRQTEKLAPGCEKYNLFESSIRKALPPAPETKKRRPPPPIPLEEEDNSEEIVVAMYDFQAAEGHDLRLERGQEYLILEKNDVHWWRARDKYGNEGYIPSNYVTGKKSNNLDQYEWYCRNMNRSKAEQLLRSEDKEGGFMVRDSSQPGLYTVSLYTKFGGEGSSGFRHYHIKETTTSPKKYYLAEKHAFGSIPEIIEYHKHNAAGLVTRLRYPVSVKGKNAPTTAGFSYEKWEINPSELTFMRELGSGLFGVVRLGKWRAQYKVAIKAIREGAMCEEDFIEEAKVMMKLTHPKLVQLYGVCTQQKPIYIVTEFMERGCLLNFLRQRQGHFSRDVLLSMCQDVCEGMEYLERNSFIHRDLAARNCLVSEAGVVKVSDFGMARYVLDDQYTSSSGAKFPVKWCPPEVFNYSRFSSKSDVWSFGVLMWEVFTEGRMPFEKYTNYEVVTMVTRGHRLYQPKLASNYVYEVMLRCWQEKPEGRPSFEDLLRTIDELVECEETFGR
FYN (human), sequence (P06241 whole entry, looked up): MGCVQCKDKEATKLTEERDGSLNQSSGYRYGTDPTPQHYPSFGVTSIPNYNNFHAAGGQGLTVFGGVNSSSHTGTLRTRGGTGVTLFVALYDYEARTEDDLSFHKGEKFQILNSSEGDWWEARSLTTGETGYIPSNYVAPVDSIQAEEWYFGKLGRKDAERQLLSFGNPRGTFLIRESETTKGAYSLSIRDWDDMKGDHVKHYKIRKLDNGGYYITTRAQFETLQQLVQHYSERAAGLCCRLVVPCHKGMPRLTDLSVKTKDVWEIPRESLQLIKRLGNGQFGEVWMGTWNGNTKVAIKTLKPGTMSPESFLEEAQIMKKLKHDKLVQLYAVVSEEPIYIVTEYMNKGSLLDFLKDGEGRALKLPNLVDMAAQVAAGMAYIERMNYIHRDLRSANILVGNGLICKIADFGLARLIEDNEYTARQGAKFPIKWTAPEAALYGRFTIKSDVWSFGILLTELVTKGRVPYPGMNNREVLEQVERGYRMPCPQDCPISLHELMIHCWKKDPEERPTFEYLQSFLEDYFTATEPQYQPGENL
MELK (human), sequence (Q14680 whole entry, looked up): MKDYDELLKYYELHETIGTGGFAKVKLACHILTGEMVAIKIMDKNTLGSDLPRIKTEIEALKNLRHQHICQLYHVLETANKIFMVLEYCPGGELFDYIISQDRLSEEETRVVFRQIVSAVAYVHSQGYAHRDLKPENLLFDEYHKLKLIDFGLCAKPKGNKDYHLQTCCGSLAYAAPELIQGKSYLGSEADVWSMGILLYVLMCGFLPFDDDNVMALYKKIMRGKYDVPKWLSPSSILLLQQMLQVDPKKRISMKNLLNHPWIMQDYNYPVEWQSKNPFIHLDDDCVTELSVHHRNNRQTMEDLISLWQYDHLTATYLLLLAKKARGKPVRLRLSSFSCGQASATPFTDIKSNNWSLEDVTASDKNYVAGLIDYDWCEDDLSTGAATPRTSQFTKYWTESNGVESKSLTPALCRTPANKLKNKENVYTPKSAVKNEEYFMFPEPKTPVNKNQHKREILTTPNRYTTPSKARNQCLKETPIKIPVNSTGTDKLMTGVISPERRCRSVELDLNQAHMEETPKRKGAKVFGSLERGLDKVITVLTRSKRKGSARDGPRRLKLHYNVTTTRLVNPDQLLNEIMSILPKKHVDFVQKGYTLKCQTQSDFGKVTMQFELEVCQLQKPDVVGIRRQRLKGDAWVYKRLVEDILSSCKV
CSF1R (human), sequence (P07333 whole entry, looked up): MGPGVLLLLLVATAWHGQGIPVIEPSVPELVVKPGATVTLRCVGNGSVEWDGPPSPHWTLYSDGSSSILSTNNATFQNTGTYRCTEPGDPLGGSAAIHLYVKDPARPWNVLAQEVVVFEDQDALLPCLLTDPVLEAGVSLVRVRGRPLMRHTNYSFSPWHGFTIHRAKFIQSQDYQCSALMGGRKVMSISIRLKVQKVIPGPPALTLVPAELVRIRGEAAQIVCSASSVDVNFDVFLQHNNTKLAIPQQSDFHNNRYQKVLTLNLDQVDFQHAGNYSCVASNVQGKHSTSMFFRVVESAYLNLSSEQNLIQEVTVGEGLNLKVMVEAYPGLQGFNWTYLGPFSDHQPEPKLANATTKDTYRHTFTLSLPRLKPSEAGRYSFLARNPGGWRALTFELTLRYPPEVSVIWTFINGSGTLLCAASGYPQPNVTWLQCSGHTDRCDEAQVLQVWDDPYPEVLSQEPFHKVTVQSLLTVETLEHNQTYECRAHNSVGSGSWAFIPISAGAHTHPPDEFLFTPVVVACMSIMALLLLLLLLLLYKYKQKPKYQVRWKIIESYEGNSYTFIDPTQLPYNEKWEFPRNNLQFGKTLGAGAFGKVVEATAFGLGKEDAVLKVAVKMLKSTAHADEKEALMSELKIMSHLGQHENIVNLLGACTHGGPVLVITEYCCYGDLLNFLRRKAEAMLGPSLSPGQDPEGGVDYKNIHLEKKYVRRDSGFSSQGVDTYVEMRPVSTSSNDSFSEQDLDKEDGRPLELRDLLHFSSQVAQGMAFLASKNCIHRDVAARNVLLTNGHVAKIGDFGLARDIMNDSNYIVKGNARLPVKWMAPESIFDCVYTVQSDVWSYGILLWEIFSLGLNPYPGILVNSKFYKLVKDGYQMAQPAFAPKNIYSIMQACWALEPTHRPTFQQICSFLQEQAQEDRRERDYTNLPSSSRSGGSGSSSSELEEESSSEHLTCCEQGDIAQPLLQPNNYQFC

Cc1ccc(NC(=O)c2ccc(NC(=O)/C=C/CN(C)C)cc2)cc1Nc1nccc(-c2cccnc2)n1
kinase still bound, per cent of control [1]: 87%
kinase still bound, per cent of control [2]: 100%
kinase still bound, per cent of control [3]: 100%
kinase still bound, per cent of control [4]: 94%
kinase still bound, per cent of control [5]: 57%
kinase still bound, per cent of control [6]: 51%
kinase still bound, per cent of control [7]: 95%
kinase still bound, per cent of control [8]: 100%
kinase still bound, per cent of control [9]: 98%
kinase still bound, per cent of control [10]: 85%
kinase still bound, per cent of control [11]: 80%
kinase still bound, per cent of control [12]: 62%
kinase still bound, per cent of control [13]: 56%
kinase still bound, per cent of control [14]: 86%
kinase still bound, per cent of control [15]: 64%
kinase still bound, per cent of control [16]: 100%
Kd [17]: 290 nM
kinase still bound, per cent of control ([17]; compound 10.0 µM): 0%
kinase still bound, per cent of control [18]: 9.2%
kinase still bound, per cent of control [19]: 81%
kinase still bound, per cent of control [20]: 85%
kinase still bound, per cent of control [21]: 86%
kinase still bound, per cent of control [22]: 100%
kinase still bound, per cent of control [23]: 77%
kinase still bound, per cent of control [24]: 47%
kinase still bound, per cent of control [25]: 100%
kinase still bound, per cent of control [26]: 12%
kinase still bound, per cent of control [27]: 59%
kinase still bound, per cent of control [28]: 93%
kinase still bound, per cent of control [29]: 25%
kinase still bound, per cent of control [30]: 78%
kinase still bound, per cent of control [31]: 100%
kinase still bound, per cent of control [32]: 95%
kinase still bound, per cent of control [33]: 84%
kinase still bound, per cent of control [34]: 100%
kinase still bound, per cent of control [35]: 87%
kinase still bound, per cent of control [36]: 93%
kinase still bound, per cent of control [37]: 100%
kinase still bound, per cent of control [38]: 82%
kinase still bound, per cent of control [39]: 100%
kinase still bound, per cent of control [40]: 74%
kinase still bound, per cent of control [41]: 34%
kinase still bound, per cent of control [42]: 95%
kinase still bound, per cent of control [43]: 92%
